Test results from ChEMBL document CHEMBL5291721, “A preclinical secondary pharmacology resource illuminates target-adverse drug reaction associations of marketed drugs” (Nat Commun, 2023).
Values joined by “and” are separate entries in the source; they are usually repeats but may differ in a detail not shown here. Identical values can stand only once.

Assays:
[1] = target: T1, Muscarinic acetylcholine receptor M2 (Homo sapiens, UniProt P08172); format: functional, cell-based
T1 sequence (P08172 whole entry): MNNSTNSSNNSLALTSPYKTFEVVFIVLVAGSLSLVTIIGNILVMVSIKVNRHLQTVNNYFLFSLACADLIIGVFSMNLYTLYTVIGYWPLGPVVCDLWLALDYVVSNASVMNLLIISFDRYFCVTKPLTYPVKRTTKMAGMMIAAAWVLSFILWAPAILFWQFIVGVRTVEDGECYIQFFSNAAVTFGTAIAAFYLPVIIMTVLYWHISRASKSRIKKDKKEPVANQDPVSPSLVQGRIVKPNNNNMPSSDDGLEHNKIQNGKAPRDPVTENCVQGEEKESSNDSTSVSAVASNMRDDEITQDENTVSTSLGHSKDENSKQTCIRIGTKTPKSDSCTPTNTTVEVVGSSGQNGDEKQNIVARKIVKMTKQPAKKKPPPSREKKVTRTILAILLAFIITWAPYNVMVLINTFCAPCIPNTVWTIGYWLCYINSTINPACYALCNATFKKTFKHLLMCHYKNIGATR

[2] = target: T1, Muscarinic acetylcholine receptor M2; format: functional, cell-based; remark: listed apart in the source
[3] = target: Delta-type opioid receptor (Homo sapiens, UniProt P41143)
[4] = target: Sodium-dependent noradrenaline transporter (Homo sapiens, UniProt P23975)
Motilin receptor = Motilin receptor (Homo sapiens, UniProt O43193)
[5] = target: 3',5'-cyclic-AMP phosphodiesterase 4D (Homo sapiens, UniProt Q08499); format: functional
D(1A) dopamine receptor = D(1A) dopamine receptor (Homo sapiens, UniProt P21728); format: functional, cell-based
[6] = target: T2, Gastrin/cholecystokinin type B receptor (Homo sapiens, UniProt P32239)
T2 sequence (P32239 whole entry): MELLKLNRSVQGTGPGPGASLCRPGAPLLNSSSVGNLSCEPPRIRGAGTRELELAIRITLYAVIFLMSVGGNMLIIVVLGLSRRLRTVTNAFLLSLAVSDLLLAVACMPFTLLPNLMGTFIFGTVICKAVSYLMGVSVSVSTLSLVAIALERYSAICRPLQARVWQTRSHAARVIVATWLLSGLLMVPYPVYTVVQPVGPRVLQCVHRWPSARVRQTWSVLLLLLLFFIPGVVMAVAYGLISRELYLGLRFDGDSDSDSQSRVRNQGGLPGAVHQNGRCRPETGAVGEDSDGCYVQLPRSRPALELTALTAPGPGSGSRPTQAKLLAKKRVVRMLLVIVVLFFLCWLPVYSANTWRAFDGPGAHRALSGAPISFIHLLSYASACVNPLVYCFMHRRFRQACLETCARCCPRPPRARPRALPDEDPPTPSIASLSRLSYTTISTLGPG

[7] = target: Beta-2 adrenergic receptor (Homo sapiens, UniProt P07550)
B2 bradykinin receptor = target: T3, B2 bradykinin receptor (Homo sapiens, UniProt P30411)
T3 sequence (P30411 whole entry): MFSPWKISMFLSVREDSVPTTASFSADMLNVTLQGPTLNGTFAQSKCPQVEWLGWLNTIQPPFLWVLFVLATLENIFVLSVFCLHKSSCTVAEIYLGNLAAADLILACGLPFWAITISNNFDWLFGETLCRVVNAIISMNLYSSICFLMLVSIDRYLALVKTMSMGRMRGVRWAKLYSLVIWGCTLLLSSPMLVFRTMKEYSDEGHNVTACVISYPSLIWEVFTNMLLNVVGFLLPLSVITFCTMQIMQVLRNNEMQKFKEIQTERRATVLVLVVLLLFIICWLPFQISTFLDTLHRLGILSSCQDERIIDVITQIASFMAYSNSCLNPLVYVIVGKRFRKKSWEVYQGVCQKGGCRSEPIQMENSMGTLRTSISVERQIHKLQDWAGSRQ

Histamine H2 receptor = Histamine H2 receptor (Homo sapiens, UniProt P25021); format: functional, cell-based
Further: assay procedure not described here.

Sequence of Beta-2 adrenergic receptor (P07550 whole entry): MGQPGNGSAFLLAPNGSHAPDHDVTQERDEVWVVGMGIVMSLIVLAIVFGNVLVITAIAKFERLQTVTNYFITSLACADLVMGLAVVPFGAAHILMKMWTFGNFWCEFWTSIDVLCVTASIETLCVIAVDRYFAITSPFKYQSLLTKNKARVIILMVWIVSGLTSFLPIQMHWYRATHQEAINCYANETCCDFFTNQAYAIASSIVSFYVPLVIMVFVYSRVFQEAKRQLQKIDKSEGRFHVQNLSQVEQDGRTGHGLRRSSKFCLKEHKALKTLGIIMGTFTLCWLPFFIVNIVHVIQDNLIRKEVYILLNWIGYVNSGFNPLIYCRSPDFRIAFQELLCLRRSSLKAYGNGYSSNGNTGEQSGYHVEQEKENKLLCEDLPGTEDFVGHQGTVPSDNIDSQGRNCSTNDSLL
Sequence of Sodium-dependent noradrenaline transporter (P23975 whole entry): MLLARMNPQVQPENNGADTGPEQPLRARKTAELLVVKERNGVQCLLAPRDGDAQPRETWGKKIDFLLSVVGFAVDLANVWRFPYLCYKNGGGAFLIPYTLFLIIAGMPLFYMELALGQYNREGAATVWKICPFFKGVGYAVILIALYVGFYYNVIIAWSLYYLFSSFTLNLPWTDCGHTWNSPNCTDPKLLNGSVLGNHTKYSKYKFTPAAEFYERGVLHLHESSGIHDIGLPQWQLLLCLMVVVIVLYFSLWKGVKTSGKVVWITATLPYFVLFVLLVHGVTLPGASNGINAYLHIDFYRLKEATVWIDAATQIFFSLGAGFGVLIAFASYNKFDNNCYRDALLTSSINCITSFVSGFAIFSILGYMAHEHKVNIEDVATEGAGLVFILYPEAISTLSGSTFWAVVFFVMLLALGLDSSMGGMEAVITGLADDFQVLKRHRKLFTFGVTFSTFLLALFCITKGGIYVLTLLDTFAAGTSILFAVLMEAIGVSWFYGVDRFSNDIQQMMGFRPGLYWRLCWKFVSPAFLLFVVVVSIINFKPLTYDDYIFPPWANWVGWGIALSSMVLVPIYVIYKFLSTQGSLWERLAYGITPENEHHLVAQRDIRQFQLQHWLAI
Sequence of D(1A) dopamine receptor (P21728 whole entry): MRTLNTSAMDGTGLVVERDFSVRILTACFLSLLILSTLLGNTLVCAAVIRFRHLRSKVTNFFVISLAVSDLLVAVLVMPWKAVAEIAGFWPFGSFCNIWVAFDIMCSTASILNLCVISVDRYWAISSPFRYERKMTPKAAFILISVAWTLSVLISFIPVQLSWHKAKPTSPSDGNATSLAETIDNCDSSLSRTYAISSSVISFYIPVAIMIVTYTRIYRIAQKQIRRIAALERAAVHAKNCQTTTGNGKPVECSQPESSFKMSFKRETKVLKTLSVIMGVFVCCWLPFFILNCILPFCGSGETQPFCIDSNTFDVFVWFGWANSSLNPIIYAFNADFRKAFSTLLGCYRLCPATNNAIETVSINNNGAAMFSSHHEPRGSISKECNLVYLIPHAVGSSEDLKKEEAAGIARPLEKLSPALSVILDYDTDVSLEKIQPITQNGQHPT
Sequence of Delta-type opioid receptor (P41143 whole entry): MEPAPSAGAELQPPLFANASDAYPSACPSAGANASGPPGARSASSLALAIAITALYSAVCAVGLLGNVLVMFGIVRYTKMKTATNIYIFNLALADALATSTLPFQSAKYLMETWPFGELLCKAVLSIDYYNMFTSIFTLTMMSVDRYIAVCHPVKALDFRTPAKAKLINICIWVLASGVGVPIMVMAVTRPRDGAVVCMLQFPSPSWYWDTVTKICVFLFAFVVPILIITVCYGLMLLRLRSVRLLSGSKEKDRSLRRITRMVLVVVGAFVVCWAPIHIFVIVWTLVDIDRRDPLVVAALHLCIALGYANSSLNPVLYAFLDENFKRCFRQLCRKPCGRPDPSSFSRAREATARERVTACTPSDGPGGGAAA
Sequence of Histamine H2 receptor (P25021 whole entry): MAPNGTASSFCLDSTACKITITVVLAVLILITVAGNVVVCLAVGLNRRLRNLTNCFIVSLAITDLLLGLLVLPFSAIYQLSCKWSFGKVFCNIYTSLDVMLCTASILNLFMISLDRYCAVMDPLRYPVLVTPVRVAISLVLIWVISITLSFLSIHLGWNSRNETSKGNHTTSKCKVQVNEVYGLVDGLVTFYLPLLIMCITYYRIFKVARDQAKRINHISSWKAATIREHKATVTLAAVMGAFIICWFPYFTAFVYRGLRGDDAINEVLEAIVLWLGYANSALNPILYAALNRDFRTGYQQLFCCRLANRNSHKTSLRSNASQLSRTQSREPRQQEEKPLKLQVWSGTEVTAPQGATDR
Sequence of Motilin receptor (O43193 whole entry): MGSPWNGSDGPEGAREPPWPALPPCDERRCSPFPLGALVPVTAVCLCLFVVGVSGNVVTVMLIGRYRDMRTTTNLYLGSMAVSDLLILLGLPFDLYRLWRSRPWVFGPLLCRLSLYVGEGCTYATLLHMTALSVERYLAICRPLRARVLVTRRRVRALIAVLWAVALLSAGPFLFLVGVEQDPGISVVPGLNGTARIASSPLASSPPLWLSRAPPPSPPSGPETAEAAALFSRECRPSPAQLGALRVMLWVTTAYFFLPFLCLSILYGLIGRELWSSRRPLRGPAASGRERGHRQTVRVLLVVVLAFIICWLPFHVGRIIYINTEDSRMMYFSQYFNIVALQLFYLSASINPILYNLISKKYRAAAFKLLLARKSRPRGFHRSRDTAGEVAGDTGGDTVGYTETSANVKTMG
Sequence of 3',5'-cyclic-AMP phosphodiesterase 4D (Q08499 whole entry): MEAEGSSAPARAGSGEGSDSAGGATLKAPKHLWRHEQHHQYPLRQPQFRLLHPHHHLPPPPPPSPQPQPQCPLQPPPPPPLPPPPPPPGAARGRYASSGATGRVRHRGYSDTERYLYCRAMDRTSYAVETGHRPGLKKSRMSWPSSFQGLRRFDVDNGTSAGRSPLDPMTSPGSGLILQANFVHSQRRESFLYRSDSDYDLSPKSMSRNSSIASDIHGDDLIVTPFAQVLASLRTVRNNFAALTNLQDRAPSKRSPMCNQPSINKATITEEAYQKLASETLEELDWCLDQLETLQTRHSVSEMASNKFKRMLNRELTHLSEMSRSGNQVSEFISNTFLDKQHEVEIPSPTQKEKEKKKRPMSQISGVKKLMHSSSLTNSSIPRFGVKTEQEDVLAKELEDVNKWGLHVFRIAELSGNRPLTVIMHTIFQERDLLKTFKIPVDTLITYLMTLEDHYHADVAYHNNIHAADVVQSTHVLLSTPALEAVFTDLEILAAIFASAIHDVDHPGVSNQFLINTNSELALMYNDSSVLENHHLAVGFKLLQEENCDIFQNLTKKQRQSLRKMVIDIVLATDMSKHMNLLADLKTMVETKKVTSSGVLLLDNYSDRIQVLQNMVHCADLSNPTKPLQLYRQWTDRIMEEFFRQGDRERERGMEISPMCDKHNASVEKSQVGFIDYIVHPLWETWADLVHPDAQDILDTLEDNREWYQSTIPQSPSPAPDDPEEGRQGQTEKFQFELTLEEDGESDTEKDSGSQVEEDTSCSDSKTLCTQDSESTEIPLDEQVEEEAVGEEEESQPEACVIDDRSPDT

| Compound | AC50 [1] | AC50 [2] | AC50 [3] | AC50 [4] | AC50 (Motilin receptor) | AC50 [5] | AC50 (D(1A) dopamine receptor) | AC50 [6] | AC50 [7] | AC50 (B2 bradykinin receptor) | AC50 (Histamine H2 receptor) |
| --- | --- | --- | --- | --- | --- | --- | --- | --- | --- | --- | --- |
| C[C@H](CCC(=O)O)[C@H]1CC[C@H]2[C@@H]3[C@@H](O)C[C@@H]4C[C@H](O)CC[C@]4(C)[C@H]3CC[C@]12C [URSODIOL] | > 30 µM | > 30 µM | > 30 µM | > 30 µM | > 30 µM | > 30 µM | > 30 µM |  |  |  |  |
| CC(C(=O)O)c1ccc2c(c1)[nH]c1ccc(Cl)cc12 (stereo unspecified) [CARPROFEN] | > 10 µM | > 10 µM | > 30 µM | > 30 µM | > 30 µM | 5.2 µM | > 10 µM | > 30 µM | > 10 µM | > 30 µM | > 10 µM |
| COc1ccccc1OCCNCC(O)COc1cccc2[nH]c3ccccc3c12 (stereo unspecified) [CARVEDILOL] | > 10 µM | > 10 µM | > 10 µM | 3.99 µM | 7.61 µM | > 10 µM | > 10 µM | > 30 µM |  | > 30 µM | > 10 µM |
| O=C1CN(/N=C/c2ccc(-c3ccc([N+](=O)[O-])cc3)o2)C(O)=N1 [DANTROLENE] | > 10 µM | > 10 µM | > 30 µM | > 10 µM | > 10 µM | > 30 µM | > 10 µM |  | > 10 µM | > 10 µM | > 10 µM |
| C[C@@H](NCCCc1cccc(C(F)(F)F)c1)c1cccc2ccccc12 | > 30 µM | > 30 µM | > 30 µM | 7.2 µM | 22 µM | > 30 µM | > 30 µM | > 30 µM |  | > 3 µM | > 30 µM |
| C=CC[C@@H]1/C=C(\C)C[C@H](C)C[C@H](OC)[C@H]2O[C@@](O)(C(=O)C(=O)N3CCCC[C@H]3C(=O)O[C@H](/C(C)=C/[C@@H]3CC[C@@H](O)[C@H](OC)C3)[C@H](C)[C@@H](O)CC1=O)[C@H](C)C[C@@H]2OC [TACROLIMUS ANHYDROUS] | > 10 µM | > 10 µM | > 30 µM | > 30 µM | 9.44 µM and > 10 µM | > 30 µM | > 30 µM | > 30 µM | > 10 µM | > 30 µM | > 10 µM |
| Cc1onc(-c2ccccc2)c1-c1ccc(S(N)(=O)=O)cc1 [VALDECOXIB] | > 10 µM | > 10 µM | > 30 µM |  | > 30 µM | > 10 µM | > 10 µM | > 30 µM | 21.1 µM | > 30 µM | > 10 µM |
| CN(C)CC[C@@H](c1ccc(Cl)cc1)c1ccccn1 [DEXCHLORPHENIRAMINE] | > 30 µM | 26 µM | > 30 µM | 18 µM | > 30 µM | > 10 µM | > 30 µM | > 30 µM | > 30 µM | > 30 µM | > 30 µM |
| CN1C[C@H](C(=O)N[C@]2(C)O[C@@]3(O)[C@@H]4CCCN4C(=O)[C@H](Cc4ccccc4)N3C2=O)C=C2c3cccc4[nH]cc(c34)C[C@H]21 [ERGOTAMINE] | > 30 µM | > 30 µM | > 30 µM | > 30 µM | > 30 µM | > 30 µM | 0.59 µM |  |  |  |  |
| CC(C)c1nc(N(C)S(C)(=O)=O)nc(-c2ccc(F)cc2)c1/C=C/[C@@H](O)C[C@@H](O)CC(=O)O [ROSUVASTATIN] | > 30 µM | > 30 µM | > 30 µM | > 30 µM | > 30 µM | 4.16 µM | > 30 µM | > 30 µM |  | > 30 µM | > 30 µM |
| C[C@H]1c2cccc(O)c2C(=O)C2=C(O)[C@]3(O)C(=O)C(C(N)=O)=C(O)[C@@H](N(C)C)[C@@H]3[C@@H](O)[C@@H]21 [DOXYCYCLINE] | > 10 µM | > 10 µM | > 30 µM | > 10 µM | > 10 µM | > 30 µM | > 10 µM | > 30 µM | > 10 µM | > 30 µM | > 10 µM |
| O=C1C(CC[S+]([O-])c2ccccc2)C(=O)N(c2ccccc2)N1c1ccccc1 (stereo unspecified) [SULFINPYRAZONE] | > 10 µM | > 10 µM | > 30 µM | > 10 µM | > 10 µM | > 30 µM | > 10 µM |  | > 10 µM | > 10 µM | > 10 µM |
| CCN(CC)CCNC(=O)c1c(C)[nH]c(/C=C2\C(=O)Nc3ccc(F)cc32)c1C [SUNITINIB] | > 30 µM | > 10 µM | 1.7 µM | 1.76 µM | 7.3 µM | 9.8 µM |  | > 10 µM | 8 µM | 2.5 µM | > 30 µM |
| COc1ccccc1Oc1c(NS(=O)(=O)c2ccc(C(C)(C)C)cc2)nc(-c2ncccn2)nc1OCCO [BOSENTAN] | > 10 µM | > 10 µM | > 30 µM | > 30 µM | > 10 µM | > 30 µM | > 10 µM | > 30 µM | > 10 µM | > 30 µM | > 10 µM |
| C[C@@H](Oc1cc(-c2cnn(C3CCNCC3)c2)cnc1N)c1c(Cl)ccc(F)c1Cl [CRIZOTINIB] | > 10 µM | > 10 µM | > 30 µM | 7.96 µM | 16 µM | 4.8 µM | > 30 µM | > 30 µM | > 10 µM |  |  |
| CC(S)C(=O)NCC(=O)O (stereo unspecified) [TIOPRONIN] | > 30 µM | > 30 µM | > 30 µM | > 30 µM | > 30 µM | > 30 µM | > 30 µM |  |  |  |  |
| CN(C)CCC[C@@]1(c2ccc(F)cc2)OCc2cc(C#N)ccc21 [ESCITALOPRAM] |  |  | > 30 µM |  | > 30 µM | > 30 µM |  | > 30 µM |  | > 30 µM |  |
| C[C@]12C=CC(=O)N[C@@H]1CC[C@@H]1[C@@H]2CC[C@]2(C)[C@@H](C(=O)Nc3cc(C(F)(F)F)ccc3C(F)(F)F)CC[C@@H]12 [DUTASTERIDE] | > 10 µM | > 10 µM | > 30 µM | > 10 µM | > 10 µM | > 30 µM | > 10 µM |  | > 10 µM | > 10 µM | > 10 µM |
| CCN1CCN(Cc2ccc(Nc3ncc(F)c(-c4cc(F)c5nc(C)n(C(C)C)c5c4)n3)nc2)CC1 [ABEMACICLIB] | > 30 µM | > 30 µM | > 30 µM | > 30 µM | > 30 µM | 3.2 µM | > 30 µM |  |  |  |  |
| CC(C)(C)NCC(O)c1cc(O)cc(O)c1 (stereo unspecified) [TERBUTALINE] |  |  |  | > 30 µM | > 30 µM |  |  | > 30 µM |  | > 30 µM |  |
| N[C@@H](CC(=O)N1CCn2c(nnc2C(F)(F)F)C1)Cc1cc(F)c(F)cc1F [SITAGLIPTIN] | > 30 µM | > 30 µM | > 30 µM | > 30 µM | > 30 µM | > 30 µM | > 30 µM | > 10 µM | > 10 µM | > 10 µM |  |
| CC(N)C12CC3CC(CC(C3)C1)C2 (stereo unspecified) [RIMANTADINE] | > 10 µM | > 10 µM | > 30 µM | > 10 µM | > 10 µM | > 30 µM | > 10 µM |  | > 10 µM | > 10 µM | > 10 µM |
